The text below walks through data of publication PMC4550876, “Discovery of γ-Mangostin as an Amyloidogenesis Inhibitor” (Scientific Reports, 2015).

By EC50 is commonly meant the midpoint of the concentration-response curve. Low values mean greater potency, high ones weaker potency.

The structures appear in SMILES notation.

The target of experiment [1] is T1, V30M mutated TTR (Homo sapiens, UniProt P02766, V50M).
T1 construct: made in house
Description: Acid-mediated aggregation experiment (thioflavin T assay) of amyloid fibril formation. Conditions: 10 μM V30M; for EC50 / inhibition at 20 µM / Inhibition ratio at 20 μM: pH 4.5, 310 K, 96 h; for EC50: 0–20 μM compound, thioflavin T fluorescence; for inhibition at 20 µM / Inhibition ratio at 20 μM: 20 μM compound; for inhibition at 20 µM: read-out: Inhibition ratio at 20 μM. Format: biochemical. From the text: V30M mutated TTR (V30M), which is most commonly associated with FAP, was used in this study, along with the following commercially available compounds (Fig. 1 and Table 1): α-mangostin (α-M, 1), 3-isomangostin (2) 9-hydroxycalabaxanthone (3), γ-mangostin (γ-M, 4), gartanin (5), 8-deoxygartanin (6), garcinone C (7), norathyriol (8), 1,3,7-trihydroxy-2-prenylxanthone (9), 3,4,5,6-tetrahydroxyxanthone (10), 1,6,7-trihydroxyxanthone (11) and mangiferin (12). Amyloid fibril formation of V30M was induced by acidic pH and the amount of fibril was quantified using thioflavin T in the presence of 0–20 μM of the compounds. The EC50 values were calculated as previously described.
Thioflavin T assay was performed using V30M in [20 mM Tris-HCl pH 8.0 and 150 mM NaCl] and 10 mM stock solutions (ethanol) of xanthone derivatives. Prior to acid-mediated aggregation, 50 μL of V30M (100 μM) was incubated for 30 min in the presence of xanthone derivatives at room temperature. After the incubation, the pH was decreased to 4.5 by adding 450 μL of 50 mM sodium acetate pH 4.5. The sample was gently vortexed and incubated at 310 K for 96 h. At this time, the concentrations of V30M and the xanthone derivatives were 10 μM and 2.5-20 μM, respectively. The solution was 5.5-fold diluted with 200 mM Tris-HCl buffer (pH 8.0). Thioflavin T assays were performed via the addition of 10 mM thioflavin T to 1.8 μM TTR samples. The final concentration of thioflavin T was 20 μM. Fluorescence emission spectra were obtained with excitation and emission wavelengths of 440 and 484 nm, respectively. The fluorescence of the sample without incubation at pH 4.5 was used as a 100% control, and that of the sample in the absence of xanthone derivatives with incubation at pH 4.5 was used as a 0% control. The amyloid fibril inhibitory ratio (%) = 100 × [1 - (fluorescence at each concentration of xanthone derivatives - 100% control)/(0% control - 100% control)]. Amyloid fibril inhibitory curves were fitted using the 4-parameter logistic model by the least squares methods and at least 3 ligand concentrations were used[30]. EC50 was estimated according to this model.

Experiment [2] concerns the target T2, V30M tetramer (Homo sapiens, UniProt P02766, V50M).
T2 construct: made in house
Put plainly: Glutaraldehyde cross-linking assay of quaternary structural stability at acidic pH. Format: biochemical. Conditions: pH 4.5, 310 K, 10 days, 3.6 μM V30M, compound 5 and 50 μM, SDS-PAGE. On the procedure:
The effect of the selected compounds on the quaternary structural stability of V30M at acidic pH was assessed using glutaraldehyde cross-linking followed by SDS-PAGE as previously described.
Glutaraldehyde cross-linking experiments were performed as previously described with some minor modifications. The stock solutions of the selected compounds were prepared in ethanol. Prior to the acid-mediated tetramer dissociation, V30M in solution [20 mM Tris-Cl pH 8.0 and 150 mM NaCl] was incubated with the compounds at room temperature for 30 min. After the incubation period, a 2-fold volume of 0.1 M sodium acetate pH 4.5 was added, and then the sample was incubated at 310 K for 10 days. At this stage, the protein concentration was 3.6 μM, and the compound concentrations were 5 and 50 μM. After the incubation period, 50 μL aliquots of the incubated samples were mixed with 2.5 μL of 25% glutaraldehyde and incubated at room temperature for 4 min, and the reactions were terminated by the addition of 5 μL of sodium borohydrate (7% (w/v) in 0.1 N NaOH). The aliquots were then mixed with SDS sample buffer, boiled and resolved by SDS-PAGE. The protein bands were visualized by silver staining.

Experiment [3] deals with T3, V30M (Homo sapiens, UniProt P02766, V50M).
T3 construct: made in house
Description: Intrinsic fluorescence quenching titration. Conditions: 2 μM TTR, excitation 280 nm, 0–20 μM γ-M. Format: binding. As to the method: (§1) V30M was titrated with various concentrations of γ-M. A previous study has shown that the binding to TTR induces quenching of the intrinsic fluorescence emission from TTR at 336 nm[22]. […] In addition, we performed a competitive binding assay using trans-resveratrol, which is known to bind to the T4-binding sites of TTR. […] For additional evidence, a pull-down assay was carried out using Sepharose 4B beads coupled with γ-M. V30M was detected in the Sepharose 4B-γ-M-coupled beads but not in Sepharose 4B beads alone or in Sepharose 4B beads alone with free γ-M (Fig. 2c).
(§2) The binding of γ-M to TTR was confirmed by an intrinsic emission fluorescence spectrum assay and a resveratrol competitive binding assay. For the intrinsic fluorescence, the spectra (300–400 nm) of 2 μM TTR in [50 mM Tris-HCl pH 7.5 and 150 mM NaCl] were recorded by exciting the protein at 280 nm[22]. […] The spectra were recorded at 0, 0.5, 2, 5 and 20 μM of γ-M. For the resveratrol competitive binding assay, the spectra (350–500 nm) of 2 μM TTR in [50 mM Tris-HCl pH 7.5 and 150 mM NaCl] were recorded by exciting trans-resveratrol at 320 nm[23]. The solutions of resveratrol and γ-M were sequentially added to the protein solution in the same manner as for the intrinsic fluorescence assay.

Experiment [4] concerns the target T4, T4-binding sites of V30M (Homo sapiens, UniProt P02766, V50M).
T4 construct: made in house
Put plainly: Resveratrol competitive binding assay. Conditions: 2 μM TTR, 5 μM resveratrol, excitation 320 nm. As to the method: as §1, §2

Consider `CC(C)=CCc1c(O)c(CC=C(C)C)c2oc3c(O)ccc(O)c3c(=O)c2c1O` [Compound 5, gartanin], for which, in experiment [1], the EC50 is greater than 20 µM and the inhibition at 20 µM came to 30 ± 0.79%.

On to `O=c1c2cc(O)c(O)cc2oc2cc(O)cc(O)c12` [Compound 8, norathyriol], for which, in experiment [1], a half-maximal response (EC50) required 9.7 ± 0.48 µM and the inhibition at 20 µM amounted to 79 ± 0.49%.

Turning to `CC(C)=CCc1c(O)cc2oc3cc(O)c(O)c(CCC(C)(C)O)c3c(=O)c2c1O` [Compound 7, garcinone C], in experiment [1], a half-maximal response (EC50) required 10 ± 0.3 µM and the inhibition at 20 µM was found to be 83 ± 0.23%.

With `COc1c(O)cc2oc3cc4c(c(O)c3c(=O)c2c1CC=C(C)C)CCC(C)(C)O4` [Compound 2, 3-isomangostin], in experiment [1], the EC50 is greater than 20 µM, the “Inhibition ratio at 20 μM” value came to 32 ± 1.3% and the inhibition at 20 µM was 32%.

Take `CC(C)=CCc1c(O)c(CC=C(C)C)c2oc3c(O)cccc3c(=O)c2c1O` [Compound 6, 8-deoxygartanin]: the “inhibitory ability against amyloid fibril formation” value in experiment [1] (up to 20 μM compound) is “did not exhibit the inhibitory ability”.

Take `COc1c(O)cc2oc3cc4c(c(O)c3c(=O)c2c1CC=C(C)C)C=CC(C)(C)O4` [Compound 3, 9-hydroxycalabaxanthone]: in experiment [1], the EC50 is greater than 20 µM, the “Inhibition ratio at 20 μM” value was determined as 29 ± 1.5% and the inhibition at 20 µM was 29%.

In the case of `COc1c(O)cc2oc3cc(O)c(CC=C(C)C)c(O)c3c(=O)c2c1CC=C(C)C` [Compound 1, α-mangostin], in experiment [1], the half-maximal effective concentration (EC50) was found to be 15 ± 0.75 µM, the “Inhibition ratio at 20 μM” value stood at 61 ± 4.7% and the inhibition at 20 µM was 61%. Moreover, the tetramer fraction entry in experiment [2] is “increased in a dose-dependent manner”.

Turning to `O=c1c2cc(O)c(O)cc2oc2cccc(O)c12` [Compound 11, 1,6,7-trihydroxyxanthone], in experiment [1], the EC50 was 14 ± 0.51 µM and the inhibition at 20 µM came to 64 ± 1.2%.

Turning to `O=c1c2cc(O)c(O)cc2oc2cc(O)c([C@@H]3O[C@H](CO)[C@@H](O)[C@H](O)[C@H]3O)c(O)c12` [Compound 12, mangiferin], in experiment [1], the EC50 is greater than 20 µM and the inhibition at 20 µM stood at 8.5 ± 2.1%.

In the case of `CC(C)=CCc1c(O)cc2oc3cc(O)c(O)c(CC=C(C)C)c3c(=O)c2c1O` [Compound 4, γ-mangostin], in experiment [1], the EC50 amounted to 7 ± 0.6 µM and the inhibition at 20 µM came to 97 ± 1.3%. The “quenching of the intrinsic fluorescence emission from V30M” value in experiment [3] is “induced similar quenching”. For the same compound, the “fluorescence intensity of resveratrol bound to V30M on addition of compound” value in experiment [4] is reported as “significantly decreased”. Moreover, the tetramer fraction entry in experiment [2] is “increased in a dose-dependent manner”.

With `O=C(O)c1cc(-c2ccc(F)cc2F)ccc1O` [diflunisal, reference compound], the inhibition at 20 µM in experiment [1] was 97 ± 1.7%.

Turning to `O=c1c2ccc(O)c(O)c2oc2c(O)c(O)ccc12` [Compound 10, 3,4,5,6-tetrahydroxyxanthone], in experiment [1], the EC50 was greater than 20 µM and the inhibition at 20 µM stood at 25 ± 0.97%.

Consider `CC(C)=CCc1c(O)cc2oc3ccc(O)cc3c(=O)c2c1O` [Compound 9, 1,3,7-trihydroxy-2-prenylxanthone], for which, in experiment [1], the EC50 worked out at 13 ± 1.1 µM and the inhibition at 20 µM worked out at 67 ± 2.7%.
